# Assay results reported in patent US9757375B2, “Compounds that inhibit human DNA ligases and methods of treating cancer” (University of Maryland, Baltimore, priority 2007, dated 2017).
# Where two headings read alike, the source gives them in different places. Marks after values point to notes of the source that are not given here.
# Legend:
# [1] = target: T1, human DNA ligase III (Homo sapiens, UniProt P49916); assay: High-throughput fluorescence-based DNA joining (ligation) assay; type: biochemical
# T1 sequence (P49916 1-862 isoform P49916-4): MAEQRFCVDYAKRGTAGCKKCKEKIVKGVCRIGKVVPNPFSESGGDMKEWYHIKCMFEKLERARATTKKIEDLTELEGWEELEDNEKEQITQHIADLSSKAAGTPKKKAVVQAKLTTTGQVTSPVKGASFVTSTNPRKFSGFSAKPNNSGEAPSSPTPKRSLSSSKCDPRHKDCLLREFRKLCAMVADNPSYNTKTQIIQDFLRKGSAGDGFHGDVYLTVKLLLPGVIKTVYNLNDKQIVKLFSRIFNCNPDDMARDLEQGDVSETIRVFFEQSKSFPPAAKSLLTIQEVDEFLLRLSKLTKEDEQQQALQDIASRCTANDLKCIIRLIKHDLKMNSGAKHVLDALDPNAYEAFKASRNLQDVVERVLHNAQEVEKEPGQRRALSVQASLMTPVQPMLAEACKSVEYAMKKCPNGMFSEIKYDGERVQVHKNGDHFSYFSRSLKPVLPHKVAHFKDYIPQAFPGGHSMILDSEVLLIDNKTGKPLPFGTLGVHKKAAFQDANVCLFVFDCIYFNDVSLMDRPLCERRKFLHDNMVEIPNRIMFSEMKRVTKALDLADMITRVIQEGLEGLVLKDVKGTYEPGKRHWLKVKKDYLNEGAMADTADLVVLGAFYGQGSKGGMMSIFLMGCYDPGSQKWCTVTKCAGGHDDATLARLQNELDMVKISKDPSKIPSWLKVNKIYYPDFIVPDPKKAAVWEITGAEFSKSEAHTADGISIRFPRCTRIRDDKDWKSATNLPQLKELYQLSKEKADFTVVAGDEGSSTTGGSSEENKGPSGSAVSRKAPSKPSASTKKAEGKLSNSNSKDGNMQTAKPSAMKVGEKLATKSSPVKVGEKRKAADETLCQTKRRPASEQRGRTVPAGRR
# Excerpt: (§1) The method for screening compounds comprises testing the compound for the ability to inhibit human DNA ligases I, III and IV with a high throughput fluorescence-based ligation assay. In this assay, phosphodiester bond formation covalently links together two oligonucleotides, one of which is a fluorescent donor AF488 that is 11 nucleotides from the 3′ terminus and the other contains a fluorescence acceptor and quencher, BHQ1 that is 15 nucleotides from the 5′ terminus. When these oligonucleotides are present in separate duplexes and in the same nicked or intact duplex, there is no significant quenching of fluorescence because the donor and acceptor are too far apart. As single-strands neither the AF488 oligonucleotide nor the BHQ1 oligonucleotides have significant secondary structure. However, when these oligonucleotides are ligated together, the resultant single strand forms a stable hairpin structure, in which the AF488 and BHQ1 groups are very close together, resulting in efficient intra-molecular quenching of fluorescence. Thus, in the DNA joining assay, the DNA substrate is denatured after incubation with the DNA ligase and then renatured in the presence of a 20-fold excess of an oligonucleotide that is identical to the ligated strand containing the fluorescent door and acceptor except that it lacks these modifications. Using this assay, DNA joining, which results in reduced fluorescence at 518 nm, can be measured rapidly, quantitatively and with high-throughput using a fluorescence plate reader.
# (§2) Applicants developed a novel high throughput fluorescence-based ligation assay by modifying the sequence of the oligos to optimize hairpin formation by the single strand ligated product of the high throughput fluorescence-based ligation assay of Chen et al (22). […] Compound stock solutions, which were 10 mM in 0.5% DMSO, were diluted in 0.5% DMSO. Human DNA ligases I and III were assayed with a nicked DNA substrate whereas as the substrate for human DNA ligase IV was two oligonucleotide duplexes with short complementary single strand ends.
# [2] = target: human DNA ligase IV (Homo sapiens, UniProt P49917); assay: as above; type: biochemical
# Sequence of human DNA ligase IV (P49917 whole entry): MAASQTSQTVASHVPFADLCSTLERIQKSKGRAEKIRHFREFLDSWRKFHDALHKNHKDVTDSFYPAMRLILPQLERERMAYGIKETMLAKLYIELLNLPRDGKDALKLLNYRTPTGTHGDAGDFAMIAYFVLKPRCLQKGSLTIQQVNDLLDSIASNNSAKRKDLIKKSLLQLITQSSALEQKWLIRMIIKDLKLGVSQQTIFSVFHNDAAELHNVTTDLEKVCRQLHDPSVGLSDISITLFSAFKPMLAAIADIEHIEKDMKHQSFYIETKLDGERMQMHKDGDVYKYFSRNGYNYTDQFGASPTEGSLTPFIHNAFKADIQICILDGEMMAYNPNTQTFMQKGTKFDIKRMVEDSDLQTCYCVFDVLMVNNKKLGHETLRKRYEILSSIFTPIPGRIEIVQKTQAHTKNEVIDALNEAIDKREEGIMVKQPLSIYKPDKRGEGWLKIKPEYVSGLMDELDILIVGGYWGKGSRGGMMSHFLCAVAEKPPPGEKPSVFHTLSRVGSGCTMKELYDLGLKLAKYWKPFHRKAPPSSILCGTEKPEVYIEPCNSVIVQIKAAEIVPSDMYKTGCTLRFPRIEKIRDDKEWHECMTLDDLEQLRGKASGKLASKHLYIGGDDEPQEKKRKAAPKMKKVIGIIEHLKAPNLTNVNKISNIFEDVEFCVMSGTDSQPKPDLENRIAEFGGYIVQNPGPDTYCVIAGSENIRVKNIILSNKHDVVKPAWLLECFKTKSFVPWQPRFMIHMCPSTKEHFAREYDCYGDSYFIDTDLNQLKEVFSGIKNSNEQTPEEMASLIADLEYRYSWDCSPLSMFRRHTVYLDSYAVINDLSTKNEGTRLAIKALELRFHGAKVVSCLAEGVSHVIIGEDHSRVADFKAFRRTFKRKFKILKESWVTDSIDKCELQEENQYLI
# Sequence of human DNA ligase IV (Q13426 whole entry partner): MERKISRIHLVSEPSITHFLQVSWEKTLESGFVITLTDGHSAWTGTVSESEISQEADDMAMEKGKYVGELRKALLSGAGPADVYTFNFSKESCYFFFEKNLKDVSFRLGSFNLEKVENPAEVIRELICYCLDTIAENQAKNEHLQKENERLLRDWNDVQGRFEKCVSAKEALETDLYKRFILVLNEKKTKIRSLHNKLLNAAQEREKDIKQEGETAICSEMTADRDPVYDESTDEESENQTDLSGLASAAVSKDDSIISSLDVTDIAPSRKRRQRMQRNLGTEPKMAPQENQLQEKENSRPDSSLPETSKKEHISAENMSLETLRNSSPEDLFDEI
# Excerpt: as §1, §2
# [3] = system: HCT116 cells; assay: MTT cell growth assay; type: cell-based, human; details: cell growth, compound alone, read-out: IC50 (μM) HCT116
# Description: (§3) The activity of hits from the initial screen was further validated using the MTT assay. Briefly, MCF10A and HCT116 cells were seeded in 96 well plates at 300 and 1200 cells per well, respectively, and allowed to adhere overnight. The following day, serial dilutions of compounds in media were added to the cells in a final volume 200 μl. After incubation for 5 days, MTT reagent (3-(4,5-dimthylthiazol-2-yl)-2,5-diphenyltatrazolium) was added and incubation was continued for 4 h. Formazan crystals generated by reduction of the MTT reagent in mitochondria were solubilized with isopropanol prior to the measurement of absorbance at 560 nm wavelength in a plate reader.
# After incubation for 5 days, cell growth was measured by the MTT assay (16).
# [4] = target: T2, hLigI (Homo sapiens, UniProt P18858); assay: High-throughput fluorescence-based DNA joining (ligation) assay; type: biochemical
# T2 construct: made in house
# T2 sequence (P18858 whole entry): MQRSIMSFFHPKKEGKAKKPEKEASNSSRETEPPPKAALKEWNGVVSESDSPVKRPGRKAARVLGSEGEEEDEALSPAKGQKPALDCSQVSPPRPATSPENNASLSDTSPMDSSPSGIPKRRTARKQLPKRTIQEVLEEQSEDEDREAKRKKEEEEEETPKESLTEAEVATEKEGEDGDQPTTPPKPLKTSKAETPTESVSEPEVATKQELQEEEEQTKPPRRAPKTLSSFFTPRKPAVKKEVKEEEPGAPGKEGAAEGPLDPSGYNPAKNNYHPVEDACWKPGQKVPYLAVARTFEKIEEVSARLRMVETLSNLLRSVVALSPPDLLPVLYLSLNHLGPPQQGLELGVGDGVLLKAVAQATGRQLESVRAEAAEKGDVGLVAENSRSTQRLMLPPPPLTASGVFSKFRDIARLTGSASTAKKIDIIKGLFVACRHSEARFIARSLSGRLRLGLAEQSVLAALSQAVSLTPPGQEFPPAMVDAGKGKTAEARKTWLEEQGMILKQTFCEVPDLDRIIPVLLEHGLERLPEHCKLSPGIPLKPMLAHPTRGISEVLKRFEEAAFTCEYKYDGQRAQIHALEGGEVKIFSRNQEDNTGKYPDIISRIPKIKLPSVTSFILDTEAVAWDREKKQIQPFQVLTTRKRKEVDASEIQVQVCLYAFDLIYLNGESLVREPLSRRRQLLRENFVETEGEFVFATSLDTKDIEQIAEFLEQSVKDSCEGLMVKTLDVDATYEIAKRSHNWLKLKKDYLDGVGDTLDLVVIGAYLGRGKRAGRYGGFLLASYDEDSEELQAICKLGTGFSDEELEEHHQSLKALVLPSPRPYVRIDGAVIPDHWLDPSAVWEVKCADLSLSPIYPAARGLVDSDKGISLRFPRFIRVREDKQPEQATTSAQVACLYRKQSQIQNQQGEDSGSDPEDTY
# Description: Candidate ligase inhibitors identified by CADD were assayed for their ability to inhibit hLigI and T4 DNA ligase using a high-throughput, fluorescence energy transfer-based DNA joining assay (22). Duplicate reactions (30 μL) containing 10 pmol of nicked DNA substrate and either 0.25 pmol of hLigI or 10 units of T4 DNA ligase were incubated in the presence or absence of 100 μmol/L of the putative inhibitor. DNA binding by the candidate DNA ligase inhibitors was measured by displacement of ethidium bromide from DNA as previously described (30).
# as §1, §2
# [5] = system: MCF10A cells; assay: Screen for potentiation of DNA damaging agents (MMS, camptothecin, cis-platinum, 3 aminobenzamide, ionizing radiation); type: cell-based, human
# Excerpt: The 192 human DNA ligase inhibitors were screened in parallel for effects on proliferation and the ability to potentiate the effects of several DNA damaging agents using two cell human lines, a colon cancer line HCT116 and a normal breast epithelial cell line MCF10A using a Biomek FX Laboratory Automation Workstation as described (23). The DNA damaging agents used, methyl methanesulfonate (MMS), camptothecin, cis-platinum, 3 aminobenzamide and ionizing radiation, are representatives of classes of agents used to treat cancer. Briefly, HCT116 and MCF10A cells were plated in 96 well plates such that the cultures were about 80% confluent after 5 days incubation. Compounds were added to the cultures at either 15 μM or 50 μM 1 day after plating. After incubation for 3 days, cell lysed in a solution containing 1.2% Igepal CA-630 and SYBR green that stains DNA (1:1000, Molecular Probes, Eugene, Oreg.). Subsequently, fluorescence was measured per well. The studies with DNA damaging agents were performed as follows. […] Cultures were incubated for 3 days and then treated as above.
# [6] = system: HCT116 cells; assay: as above; type: cell-based, human
# Excerpt: (§4) The 192 human DNA ligase inhibitors were screened in parallel for effects on proliferation and the ability to potentiate the effects of several DNA damaging agents using two cell human lines, a colon cancer line HCT116 and a normal breast epithelial cell line MCF10A using a Biomek FX Laboratory Automation Workstation as described (23). The DNA damaging agents used, methyl methanesulfonate (MMS), camptothecin, cis-platinum, 3 aminobenzamide and ionizing radiation, are representatives of classes of agents used to treat cancer. Briefly, HCT116 and MCF10A cells were plated in 96 well plates such that the cultures were about 80% confluent after 5 days incubation. Compounds were added to the cultures at either 15 μM or 50 μM 1 day after plating. After incubation for 3 days, cell lysed in a solution containing 1.2% Igepal CA-630 and SYBR green that stains DNA (1:1000, Molecular Probes, Eugene, Oreg.). Subsequently, fluorescence was measured per well. The studies with DNA damaging agents were performed as follows. […] For ionizing radiation, cells were pre-incubated with the compounds at 50 μM for 1 hour prior to exposure to 2 gray of ionizing radiation. Cultures were incubated for 3 days and then treated as above.
# [7] = system: MCF10A cells; assay: MTT cell growth assay; type: cell-based, human; details: Homo sapiens, MCF-10A; sections 'high concentrations (~50 μM)' and 'active in vitro that decreased cell growth'; same figures given in μM elsewhere in Table 6; read-out: IC50 MCF10A (head without unit)
# Description: as §3
# To extend the results of the […] cell culture screening assay, a subset of compounds were tested in larger cultures. Different concentrations of Compounds 67 and 151 were added to asynchronous subconfluent populations of HCT116 and MCF10A cells. Asynchronous subconfluent populations of HCT116 and MCF10A cells were pre-treated with different concentrations of compound 64 prior to the addition of 3 aminobenzamide (2 mM) MMS (100 μM) or cis-platinum (1 μM). After incubation for 5 days, cell growth was measured by the MTT assay (16).
# [8] = system: HCT116 and MCF10A cells; assay: Screen for potentiation of DNA damaging agents, cell line not stated with the result; type: cell-based, human; details: 50 μM, 2 gray of ionizing radiation
# Excerpt: as §4
# [9] = compound alone vs combination with 3-AB (2 mM), 1 = no sensitization
Structure (SMILES),inhibition at 100 µM ([1]; read-out: % of inhibition @ 100 μM (Helen's data) hLigIII) [%],inhibition at 100 µM ([2]; read-out: % of inhibition @ 100 μM (Helen's data) hLigIV) [%],"IC50 ([3]; Homo sapiens, HCT-116) [µM]",inhibition at 100 µM ([4]; read-out: % of inhibition @ 100 μM (Helen's data) hLigI) [%],"IC50 ratios of non- and 3-AB treated cells MCF10A [5, 9]","IC50 ratios of non- and 3-AB treated cells HCT116 [6, 9]","MMS: Ratios of IC50 HCT116 ([6]; compound alone vs combination with MMS (100 μM), 1 = no sensitization)",IC50 [7] [µM],% of inhibition @ 100 μM (Helen's data) hLigIII ([1]; 100 μM),% of inhibition @ 100 μM (Helen's data) hLigIV ([2]; 100 μM),IC50 [3] [µM],% of inhibition @ 100 μM (Helen's data) hLigI ([4]; 100 μM),radiosensitizer activity [8],Radiosensitizers: IC50 ratios MCF10A ([5]; ionizing radiation),Radiosensitizers: IC50 ratios HCT116 ([6]; ionizing radiation)
O=C1NC(=S)NC(=O)C1=NNc1cccc(C(=O)O)c1 [Compound 198],< 20,< 20,> 50,< 20,2**,1,2**,> 50,,,,,,,
CCc1ccc(NS(=O)(=O)c2ccc(Cl)s2)cc1 [Compound 105],,,,,,,,,NI (NI- no inhibition),NI (NI- no inhibition),~50,NI (NI- no inhibition),act as radiosensitizers,1,1.3
